The values that follow come from patent US9481639B2, “Substituted tetracycline compounds for treatment of inflammatory skin disorders” (Paratek Pharmaceuticals, Inc., priority 2006, dated 2016).

Data set [1] has as its system S. aureus RN450. Nature of the data set: Antibacterial MIC, CLSI broth microdilution. The conditions noted are these: Staphylococcus aureus, 35° C., 18-24 hours. The format is cell-based. The method, then:
(§1) Gram (−) and gram (+) antibacterial minimum inhibitory concentration (MIC) values (μg/mL) were obtained using CLSI methodology for anti-bacterial susceptibility testing. On each day of testing, serial dilutions of compounds were prepared in microdilution plates using a Tecan robotic workstation. Mueller Hinton broth cultures of representative sensitive and resistant gram negative strains were grown or adjusted to match the turbidity of a 0.5 McFarland standard. 1:200 dilutions were made in an appropriate broth (cation supplemented Mueller Hinton broth) to allow a final inoculum of 1×10^5 cfu. Plates were incubated at 35° C. in ambient air for 18-24 hours, were read spectrophotometrically and checked manually for evidence of bacterial growth. The lowest dilution of compound that inhibited growth was recorded as the MIC. Lysed horse blood was used to supplement broth for testing S. pneumoniae. The MIC's for each compound were assessed against S. aureus, S. pneumoniae, P. acnes, E. coli and B. theta.

Data set [2] has as its system B. thetaiotaomicron ATCC 29741. Nature of the data set: Antibacterial MIC, CLSI broth microdilution. The format is cell-based. As to the method:
as §1
In general terms: Broth dilution looks for growth in wells or tubes with falling amounts of substance.

In the next data set the test system is E. coli MG. 1655. Nature of the data set: Antibacterial MIC, CLSI broth microdilution. The format is cell-based. The note with it: Escherichia coli, 35° C., 18-24 hours. As to the method:
as §1

Another data set deals with E. coli ATCC 25922. Nature of the data set: Antibacterial MIC, CLSI broth microdilution. The note with it: Escherichia coli, ATCC25922; 35° C., 18-24 hours. The format is cell-based. The method, then: as §1
The subject of data set [3] is S. pneumoniae 157E - Strep. Briefly: Antibacterial MIC, CLSI broth microdilution. The format is cell-based. The note with it: Streptococcus pneumoniae, 157ESTREP; broth supplemented with lysed horse blood. The method, then:
as §1

The next data set has as its system P. acnes ATCC 11827. Nature of the data set: Antibacterial MIC, CLSI broth microdilution. The conditions noted are these: Cutibacterium acnes, ATCC11827. The format is cell-based. As to the method: as §1
For a further data set, the system named is P. acnes ATCC 6919. Nature of the data set: Antibacterial MIC, CLSI broth microdilution. The format is cell-based. The conditions noted are these: Cutibacterium acnes, ATCC6919. As to the method:
as §1

The subject of data set [4] is S. aureus RN450. Nature of the data set: In vivo anti-bacterial activity, S. aureus lethal infection model. The conditions noted are these: Staphylococcus aureus, sc, mice; for responders at 5 mg/kg: lethal IP S. aureus RN450, single subcutaneous dose 5 mg/kg, survival at 24 hours, read-out: Percent Survival; for ED50: lethal IP S. aureus RN450, subcutaneous, 24 hours, read-out: PD50 (dose that protects 50% of the animals). As to the method: Groups of five mice were injected intraperitoneally with a lethal dose of S. aureus RN450 in a medium of mucin. Mice were evaluated at 24 hours to determine survival. […] In some instances, a dose response study was performed with the compound such that a PD50 (a dose of compound that protects 50% of the animals) could be calculated.

The next data set can be described thus: in vitro. The format is cell-based. The method, then:
Mammalian cell cytotoxicity was assessed to evaluate potential in vivo risks associated with the tetracycline compounds of the invention. A soluble, non-toxic redox dye (“Resazurin”; Alamar Blue) was used to assess a tetracycline compound's effect on cellular metabolism. At the onset of the experiment, cultures of mammalian COS-1 or CHO cells were washed, trypsinized, and harvested. […] On the next day, serial dilutions of test drug were prepared under sterile conditions and transferred to cell plates. Plates were then incubated under the above conditions for 24 hours. Following the incubation period, the media/drug was aspirated, and 50 μL of resazurin was added. Plates were then incubated under the above conditions for 2 hours and then in the dark at room temperature for an additional 30 minutes. Fluorescence measurements were taken (excitation 535 nm, emission 590 nm) and toxic effects in treated versus control cells were compared based on the degree of fluorescence in each well.

The test system of data set [5] is carrageenan induced rat paw inflammation. Briefly: Rat carrageenan-induced paw edema inflammatory model. The note with it: for 50% effective concentration (EC50), carrageenan induced paw inflammation: IP 30 minutes before carrageenan, paw volume 3 hours after. The format is in vivo. The method, then:
The model used a sub-plantar injection of carrageenan in the rat to induce an inflammatory response. The test compound or saline (control) was administered IP 30 minutes before a subplantar injection of carrageenan (1.5 mg/0.1 mL). Paw volume was measured […] before subplantar injection and again 3 hours after the injection of carrageenan using a plethysmometer. Significant differences as determined by a Kruskal-Wallis One Way ANOVA are noted between the inflammation of the untreated controls versus treated animals […]
Background: In the carrageenan paw model, swelling and tenderness develop within hours.

The mark [6] stands for this setting: Bacteroides thetaiotaomicron, ATCC29741; read-out: MIC B. thetaiotaomicron ATCC 29741.
Where [7] appears, read: Bacteroides thetaiotaomicron, ATCC29741, read-out: MIC B. thetaiotaomicron ATCC 29741.

One may read the MIC as the smallest concentration in the dilution series that meets the test's criterion for growth inhibition. As a reminder, the IC50 is the concentration that inhibits the measured activity by half.

Values after ≈ are worked out from the molar mass of the structure shown. Where two headings read alike, the source gives them in different places. Where only a bound is given, the exact number is not on record here.

Take `CCO/N=C(/C)c1ccc(O)c2c1CC1CC3[C@H](N(C)C)C(O)=C(C(N)=O)C(=O)[C@@]3(O)C(O)=C1C2=O` (stereo partly drawn) [Compound A]: the MIC against S. aureus RN450 [1] is under 4 µg/mL; in data set [2] (setting [6]) it was over 8 µg/mL; in the data set on E. coli MG. 1655, 4 to 8 µg/mL (≈ 8.01 to 16 µM); against E. coli ATCC 25922, under 4 µg/mL; in data set [3] it was under 4 µg/mL; against P. acnes ATCC 11827, under 4 µg/mL. This compound had an MIC in the data set with P. acnes ATCC 6919 of under 4 µg/mL. Moreover, in the data set with S. aureus RN450 [4], the responders at 5 mg/kg is 100%. Moreover, the IC50 at 24 h in the data set “in vitro” (African green monkey) and in the data set “in vitro” (Chinese hamster) was under 35 µg/mL throughout. Besides, the “modulation of carrageenan induced inflammation compared with reference tetracycline” value in data set [5] (IP, various doses, A vs doxycycline (FIG. 1), P vs minocycline (FIG. 2)) was “improved activity”.
For `C[C@H]1c2cccc(O)c2C(=O)C2=C(O)[C@]3(O)C(=O)C(C(N)=O)=C(O)[C@@H](N(C)C)[C@@H]3[C@@H](O)[C@@H]21` [Doxycycline, reference compound], the MIC in data set [2] (setting [7]) lay within 4 to 8 µg/mL (≈ 9 to 18 µM). For the same compound, the “50% effective concentration (EC50), carrageenan induced paw inflammation” value in data set [5] was “approximately 50 mg/kg”.
For the compound `CC(=NOC(C)(C)C)c1cc(N)c(O)c2c1C[C@H]1C[C@H]3[C@H](N(C)C)C(O)=C(C(N)=O)C(=O)[C@@]3(O)C(O)=C1C2=O` [Compound Q, (4S,4aS,5aR,12aS)-9-Amino-7-(1-tert-butoxyimino-ethyl)-4-dimethylamino-3,10,12,12a-tetrahydroxy-1,11-dioxo-1,4,4a,5,5a,6,11,12a-octahydro-naphthacene-2-carboxylic acid amide], the MIC in the data set with S. aureus RN450 [1] is under 4 µg/mL; in [2] (setting [6]), 4 to 8 µg/mL (≈ 7.37 to 14.7 µM); against E. coli MG. 1655, 4 to 8 µg/mL (≈ 7.37 to 14.7 µM); against E. coli ATCC 25922 it was 4 to 8 µg/mL (≈ 7.37 to 14.7 µM); in data set [3] it was under 4 µg/mL; against P. acnes ATCC 11827 it was under 4 µg/mL. Also, the MIC in the data set with P. acnes ATCC 6919 is under 4 µg/mL. Also, in the data set on S. aureus RN450 [4], the responders at 5 mg/kg was found to be 100%. The ED50 with S. aureus RN450 [4] came to 0.45 mg/kg. The IC50 at 24 h in “in vitro” (African green monkey) and in the data set “in vitro” (Chinese hamster) was under 35 µg/mL throughout.
For the compound `CN(C)[C@@H]1C(O)=C(C(N)=O)C(=O)[C@@]2(O)C(O)=C3C(=O)c4cccc(-c5cnccn5)c4C[C@H]3C[C@@H]12` [Compound W, (4S,4aS,5aR,12aS)-4-Dimethylamino-3,12,12a-trihydroxy-1,11-dioxo-7-pyrazin-2-yl-1,4,4a,5,5a,6,11,12a-octahydro-naphthacene-2-carboxylic acid amide], the MIC was under 4 µg/mL against S. aureus RN450 [1]; over 8 µg/mL in [2] (setting [6]); over 8 µg/mL in the data set with E. coli MG. 1655; over 8 µg/mL with E. coli ATCC 25922; under 4 µg/mL in data set [3]; under 4 µg/mL with P. acnes ATCC 11827. Moreover, the MIC in the data set with P. acnes ATCC 6919 was under 4 µg/mL. Besides, the ED50 with S. aureus RN450 [4] turned out to be 1.08 mg/kg. For the same compound, the IC50 at 24 h in the data set “in vitro” (African green monkey) and in the data set “in vitro” (Chinese hamster) was over 75 µg/mL in each case.
Consider `CN(C)c1ccc(O)c2c1C[C@H]1C[C@H]3[C@H](N(C)C)C(O)=C(C(N)=O)C(=O)[C@@]3(O)C(O)=C1C2=O` [Minocycline, reference compound], for which the MIC in [2] (setting [7]) was in the range of 4 to 8 µg/mL (≈ 8.74 to 17.5 µM). Further, the “50% effective concentration (EC50), carrageenan induced paw inflammation” value in data set [5] is on record as “approximately 50 mg/kg”.
